This note sets out measurements from article PMC12444550, “Design, Synthesis, and Trypanosomicidal Evaluation of Eugenol-Based Azole Hybrids: Discovery of an In Vitro Active and Selective Compound” (ACS Omega, 2025).

Series [1] has as its system T. cruzi Y strain amastigote forms. The experiment in a line: Anti-T. cruzi activity against intracellular amastigote forms in infected Vero or H9c2 cells. In kind it is cell-based, Trypanosoma cruzi. As to conditions: Vero or H9c2 cells infected with amastigote forms, 48 h of incubation, fixed concentration 50 μmol·L^–1. As to the method: (§1) The T. cruzi Y strain was selected for this study due to its known partial sensitivity to benznidazole chemotherapy.
Vero or H9c2 cells (7.5 × 10^3 cells/well) were seeded on sterile glass coverslips placed in 24-well plates and incubated for 24 h at 37 °C in 5% CO2 to allow cell adhesion. Following this period, cells were infected with trypomastigote forms of T. cruzi Y strain at a ratio of 20 parasites per cell. After 24 h of parasite-host interaction, noninternalized parasites were removed by washing with fresh medium, and the infected monolayers were incubated for 48 h with the hybrid compounds at a fixed concentration of 50 μmol·L^–1, following toxicity parameters. Infected but untreated cells were included as negative controls in all experiments. At the end of the treatment period, coverslips were washed with medium, fixed with methanol, and stained with Giemsa solution. After drying, the coverslips were mounted onto microscope slides using Entellan (Merck) and analyzed under a light microscope at 100× magnification. At least 200 cells were counted per coverslip, and only intracellular parasite forms with characteristic morphology were considered for analysis. The infection index was determined by the percentage of infected cells relative to the total number of cells analyzed. The inhibition percentage was calculated based on the reduction in infection in treated samples compared to the untreated control. Dose–response curves were constructed using GraphPad Prism 8 and CompuSyn (Biosoft, U.K.). All experiments were performed in triplicate, with at least two technical replicates per condition.

The nature of series [2]: Cell viability assay (resazurin), Vero cells. Type of series: cell-based. As to conditions: African green monkey, Vero cells; resazurin method; 48 h incubation; read-out: Cytotoxicity CC50 Vero. The method, then:
(§2) Vero and H9c2 cells (2 × 10^3 cells/well) were seeded in 96-well plates in Dulbecco’s modified Eagle’s medium (DMEM) supplemented with 5% fetal bovine serum (FBS) and incubated for 24 h at 37 °C in a humidified atmosphere with 5% CO2. After incubation, the medium was replaced with fresh DMEM + 5% FBS containing serial dilutions of each hybrid compound (1400 to 175 μmol·L^–1). Cells were exposed to the compounds for 48 h. Four wells with untreated cells served as a positive control. Additionally, eight wells without cells were maintained as negative controls: four containing DMEM + 5% FBS + resazurin (1 mmol·L^–1), and four containing only DMEM + 5% FBS. After the 48-h incubation, the treatment medium was removed and replaced with DMEM + 5% FBS containing 10% resazurin solution (1 mmol·L^–1). Plates were incubated for an additional 6 h, and then absorbance was measured at 570 and 600 nm using a microplate reader. Dose–response curves were constructed using GraphPad Prism 8 software, and CC50 values were determined by nonlinear regression.

Series [3] relates to T. cruzi Y strain trypomastigote forms. The experiment in a line: Anti-T. cruzi activity against trypomastigote forms. Type of series: cell-based. The settings on record: for EC50: read-out: Y strain T. cruzi EC50 Trypomastigote; for trypanosomicidal activity (parasite mortality): at 100 μmol·L^–1, trypomastigotes; for SI (selectivity index): mammalian cell CC50 versus trypomastigote EC50. The method, then:
as §1
Trypomastigote forms of T. cruzi (2.5 × 10^5 parasites/well) were incubated in 96-well plates with serial dilutions of the hybrid compounds (100, 50, 25, and 12.5 μmol·L^–1) for 24 h at 37 °C in a humidified 5% CO2 atmosphere. Following incubation, parasite viability was assessed under an optical microscope by evaluating motility, and the number of live parasites was quantified using a Neubauer chamber. Untreated parasite cultures were maintained in parallel as negative controls. The mortality percentage was calculated by comparing the number of live parasites in treated wells to that of untreated controls. All experiments were conducted in triplicate with at least two technical replicates per concentration. EC50 values were determined by nonlinear regression using GraphPad Prism 8 and CompuSyn software (Biosoft, U.K.).

A short description of series [4]: Cell viability assay (resazurin), H9c2 cells. In kind it is cell-based. The settings on record: rat, resazurin method, 48 h incubation, read-out: Cytotoxicity CC50 H9c2. The method, then:
as §2
In general terms: Resazurin is reduced to fluorescent resorufin, in cell work by metabolically active cells.

A further series has as its system Vero cells. The experiment in a line: Cell viability assay (resazurin), Vero cells. Type of series: cell-based. As to conditions: 48 h; 1400 to 175 μmol·L^–1. The method, then:
as §2

Setting [5] is: Trypanosoma cruzi, 24 h, 24 h of incubation, Y strain.

Like-named read-outs stand apart in the source and are kept apart here.

The EC50 is the midpoint of the concentration-response curve. A word on the CC50: it is the concentration giving 50% cytotoxicity. Regarding `COc1cc(CC(O)Cn2cncn2)ccc1O` (racemic) [Compound 18, (±)-4-(2-Hydroxy-3-(1H-1,2,4-triazol-1-yl)propyl)-2-methoxyphenol], the EC50 was greater than 50 µM in series [1] (Trypanosoma cruzi) and greater than 100 µM in series [3] (setting [5]). The CC50 at 48 h in series [2] and in series [4] was greater than 1300 µM throughout.

Regarding `COc1cc(CC(O)Cn2cncn2)cc([N+](=O)[O-])c1O` (racemic) [Compound 19, (±)-4-(2-Hydroxy-3-(1H-1,2,4-triazol-1-yl)propyl)-2-methoxy-6-nitrophenol], the EC50 in series [1] (Trypanosoma cruzi) was greater than 50 µM; in series [3] (setting [5]), greater than 100 µM. The CC50 at 48 h in series [2] and in series [4] was greater than 1300 µM throughout.

For the molecule `COc1ccc(CC(O)Cn2cncn2)cc1OC` (racemic) [Compound 20, (±)-1-(3,4-Dimethoxyphenyl)-3-(1H-1,2,4-triazol-1-yl)propan-2-ol], the EC50 is greater than 50 µM in series [1] (Trypanosoma cruzi) and greater than 100 µM in series [3] (setting [5]). In the series on Vero cells, the “cytotoxicity toward Vero cells (in words)” value was “significantly higher cytotoxicity”. The CC50 at 48 h in series [2] is greater than 1400 µM; in series [4], greater than 1300 µM.

For `COc1cc(CC(O)Cn2cncn2)cc([N+](=O)[O-])c1OC` (racemic) [Compound 21, (±)-1-(3,4-Dimethoxy-5-nitrophenyl)-3-(1H-1,2,4-triazol-1-yl)propan-2-ol], the EC50 was greater than 50 µM in series [1] (Trypanosoma cruzi) and greater than 100 µM in series [3] (setting [5]). Moreover, the CC50 at 48 h in series [2] and in series [4] was greater than 1300 µM throughout.

Consider `COc1cc(CC(O)Cn2cncn2)ccc1OCc1ccccc1` (racemic) [Compound 22, (±)-1-(4-(Benzyloxy)-3-methoxyphenyl)-3-(1H-1,2,4-triazol-1-yl)propan-2-ol], for which the EC50 in series [1] (Trypanosoma cruzi) is greater than 50 µM; in series [3] (setting [5]), greater than 100 µM. The CC50 at 48 h in series [2] and in series [4] was greater than 1300 µM throughout.

In the case of `COc1cc(CC(O)Cn2cncn2)cc([N+](=O)[O-])c1OCc1ccccc1` (racemic) [Compound 23, (±)-1-(4-(Benzyloxy)-3-methoxy-5-nitrophenyl)-3-(1H-1,2,4-triazol-1-yl)propan-2-ol], the EC50 in series [1] (Trypanosoma cruzi) was greater than 50 µM; in series [3] (setting [5]), greater than 100 µM. In addition, the CC50 at 48 h in series [2] and in series [4] was greater than 1300 µM throughout. Also, the “activity against trypomastigote forms (in words)” value in series [3] (Y strain, up to 100 μmol·L^–1) is “inactive”.

For the molecule `COc1cc(CC(O)Cn2ccnc2)ccc1O` (racemic) [Compound 24, (±)-4-(2-Hydroxy-3-(1H-imidazol-1-yl)propyl)-2-methoxyphenol], the EC50 was greater than 50 µM in series [1] (Trypanosoma cruzi) and greater than 100 µM in series [3] (setting [5]). Besides, the CC50 at 48 h in series [2] and in series [4] was greater than 1300 µM throughout.

As to `COc1cc(CC(O)Cn2ccnc2)cc([N+](=O)[O-])c1O` (racemic) [Compound 25, (±)-4-(2-Hydroxy-3-(1H-imidazol-1-yl)propyl)-2-methoxy-6-nitrophenol], the results for the EC50 in series [1] (Trypanosoma cruzi) and in series [3] (setting [5]) were greater than 50 µM and greater than 100 µM, respectively. Besides, the “cytotoxicity toward Vero cells (in words)” value in the series with Vero cells is listed as “significantly higher cytotoxicity”. For the same molecule, the CC50 at 48 h in series [2] is 860 µM; in series [4], greater than 1300 µM.

As for `COc1ccc(CC(O)Cn2ccnc2)cc1OC` (racemic) [Compound 26, (±)-1-(3,4-Dimethoxyphenyl)-3-(1H-imidazol-1-yl)propan-2-ol], the EC50 in series [1] (Trypanosoma cruzi) is greater than 50 µM; in series [3] (setting [5]), greater than 100 µM. Also, the CC50 at 48 h in series [2] and in series [4] was greater than 1300 µM throughout.

As to `COc1cc(CC(O)Cn2ccnc2)cc([N+](=O)[O-])c1OC` (racemic) [Compound 27, (±)-1-(3,4-Dimethoxy-5-nitrophenyl)-3-(1H-imidazol-1-yl)propan-2-ol], the 50% effective concentration (EC50) in series [1] (Trypanosoma cruzi) is greater than 50 µM; in series [3] (setting [5]), greater than 100 µM. The CC50 at 48 h in series [2] and in series [4] was greater than 1300 µM in each case.

Take `COc1cc(CC(O)Cn2ccnc2)ccc1OCc1ccccc1` (racemic) [Compound 28, (±)-1-(4-(Benzyloxy)-3-methoxyphenyl)-3-(1H-imidazol-1-yl)propan-2-ol]: the EC50 in series [1] (Trypanosoma cruzi) was greater than 50 µM; in series [3] (setting [5]) it was greater than 100 µM. In addition, the CC50 at 48 h in series [2] and in series [4] was greater than 1300 µM each time.

Turning to `COc1cc(CC(O)Cn2ccnc2)cc([N+](=O)[O-])c1OCc1ccccc1` (racemic) [Compound 29, (±)-1-(4-(Benzyloxy)-3-methoxy-5-nitrophenyl)-3-(1H-imidazol-1-yl)propan-2-ol], the EC50 in series [1] (Trypanosoma cruzi) is greater than 50 µM; in series [3] (24 h of incubation, Y strain), 26.5 µM. Moreover, the CC50 at 48 h in series [2] and in series [4] was greater than 1300 µM each time. Further, the “trypanosomicidal activity (parasite mortality)” value in series [3] (24 h) is listed as “approximately 99%”. For the same molecule, the “SI (selectivity index)” value in series [3] was greater than 49.

For the molecule `COc1cc(CC(O)Cn2ccnn2)ccc1O` (racemic) [Compound 30, (±)-4-(2-Hydroxy-3-(1H-1,2,3-triazol-1-yl)propyl)-2-methoxyphenol], the EC50 was greater than 50 µM in series [1] (Trypanosoma cruzi) and greater than 100 µM in series [3] (setting [5]). The CC50 at 48 h in series [2] and in series [4] was greater than 1300 µM throughout.

In the case of `COc1cc(CC(O)Cn2ccnn2)cc([N+](=O)[O-])c1O` (racemic) [Compound 31, (±)-4-(2-Hydroxy-3-(1H-1,2,3-triazol-1-yl)propyl)-2-methoxy-6-nitrophenol], the EC50 was greater than 50 µM in series [1] (Trypanosoma cruzi) and greater than 100 µM in series [3] (setting [5]). The CC50 at 48 h in series [2] and in series [4] was greater than 1300 µM each time.

Turning to `COc1ccc(CC(O)Cn2ccnn2)cc1OC` (racemic) [Compound 32, (±)-1-(3,4-Dimethoxyphenyl)-3-(1H-1,2,3-triazol-1-yl)propan-2-ol], the EC50 in series [1] (Trypanosoma cruzi) is greater than 50 µM; in series [3] (setting [5]), greater than 100 µM. For the same molecule, the CC50 at 48 h in series [2] and in series [4] was greater than 1300 µM each time.

Consider `COc1cc(CC(O)Cn2ccnn2)cc([N+](=O)[O-])c1OC` (racemic) [Compound 33, (±)-1-(3,4-Dimethoxy-5-nitrophenyl)-3-(1H-1,2,3-triazol-1-yl)propan-2-ol], for which the values for the EC50 in series [1] (Trypanosoma cruzi) and in series [3] (setting [5]) were greater than 50 µM and greater than 100 µM, respectively. Moreover, the “cytotoxicity toward Vero cells (in words)” value in the series with Vero cells was “significantly higher cytotoxicity”. Besides, the CC50 at 48 h was 1190 µM in series [2] and greater than 1300 µM in series [4].

Take `COc1cc(CC(O)Cn2ccnn2)cc([N+](=O)[O-])c1OCc1ccccc1` (racemic) [Compound 34, (±)-1-(4-(Benzyloxy)-3-methoxy-5-nitrophenyl)-3-(1H-1,2,3-triazol-1-yl)propan-2-ol]: the EC50 in series [1] (Trypanosoma cruzi) is greater than 50 µM; in series [3] (setting [5]) it was 38.1 µM. Also, the CC50 at 48 h in series [2] and in series [4] was greater than 1300 µM each time. Besides, the “SI (selectivity index)” value in series [3] is given as greater than 34.

What is called mortality is the share of the test organisms that died. On to `COc1cc(CC(O)Cn2ccnc2)cc([N+](=O)[O-])c1OCc1ccccc1` (single isomer, unassigned; (+)) [(+)-29], for which the EC50 was greater than 50 µM in series [1]; 28.8 µM in series [3] (24 h of incubation, Y strain); roughly 29 µM in series [3] (setting [5]). For the same molecule, the mortality at 100 µM in series [3] (Trypanosoma cruzi, 24 h, read-out: trypanosomicidal activity (parasite mortality)) is roughly 99%.

As for `COc1cc(CC(O)Cn2ccnc2)cc([N+](=O)[O-])c1OCc1ccccc1` (single isomer, unassigned; (-)) [(-)-29], the concentration for a half-maximal effect (EC50) in series [1] is greater than 50 µM; in series [3] (24 h of incubation, Y strain, listed as (−)-29), roughly 29 µM; in series [3] (24 h of incubation, Y strain) it was 29.9 µM. The “trypanosomicidal activity (parasite mortality)” value in series [3] (24 h) was “approximately 99%”.

For the molecule `C=CCc1ccc(O)c(OC)c1` [Eug, eugenol], in series [3] (Trypanosoma cruzi, 24 h), the EC50 worked out at 500 µM.
